Source: ChEMBL document CHEMBL1201862, “PubChem BioAssay data set” (2004)
Active and inactive are the calls of the source.

Key:
[1] = tested on: Streptococcus sp. 'group A'; assay: growth inhibition of control SK(-) GAS strain, dose response, counter-screen for streptokinase expression inhibitor project, luminescence, kanamycin, BacTiterGlo, confirmation (AID 1900); format: functional, organism-based
[2] = target: Multidrug resistance protein CDR2 (Candida albicans (strain SC5314 / ATCC MYA-2876) (Yeast), UniProt P78595); assay: CaCDR2 efflux pump inhibitors in yeast, dose response, S. cerevisiae AD1-8u, singleplex, Cherry Pick1 hits (AID 588604); format: functional
Sequence of Multidrug resistance protein CDR2 (P78595 whole entry): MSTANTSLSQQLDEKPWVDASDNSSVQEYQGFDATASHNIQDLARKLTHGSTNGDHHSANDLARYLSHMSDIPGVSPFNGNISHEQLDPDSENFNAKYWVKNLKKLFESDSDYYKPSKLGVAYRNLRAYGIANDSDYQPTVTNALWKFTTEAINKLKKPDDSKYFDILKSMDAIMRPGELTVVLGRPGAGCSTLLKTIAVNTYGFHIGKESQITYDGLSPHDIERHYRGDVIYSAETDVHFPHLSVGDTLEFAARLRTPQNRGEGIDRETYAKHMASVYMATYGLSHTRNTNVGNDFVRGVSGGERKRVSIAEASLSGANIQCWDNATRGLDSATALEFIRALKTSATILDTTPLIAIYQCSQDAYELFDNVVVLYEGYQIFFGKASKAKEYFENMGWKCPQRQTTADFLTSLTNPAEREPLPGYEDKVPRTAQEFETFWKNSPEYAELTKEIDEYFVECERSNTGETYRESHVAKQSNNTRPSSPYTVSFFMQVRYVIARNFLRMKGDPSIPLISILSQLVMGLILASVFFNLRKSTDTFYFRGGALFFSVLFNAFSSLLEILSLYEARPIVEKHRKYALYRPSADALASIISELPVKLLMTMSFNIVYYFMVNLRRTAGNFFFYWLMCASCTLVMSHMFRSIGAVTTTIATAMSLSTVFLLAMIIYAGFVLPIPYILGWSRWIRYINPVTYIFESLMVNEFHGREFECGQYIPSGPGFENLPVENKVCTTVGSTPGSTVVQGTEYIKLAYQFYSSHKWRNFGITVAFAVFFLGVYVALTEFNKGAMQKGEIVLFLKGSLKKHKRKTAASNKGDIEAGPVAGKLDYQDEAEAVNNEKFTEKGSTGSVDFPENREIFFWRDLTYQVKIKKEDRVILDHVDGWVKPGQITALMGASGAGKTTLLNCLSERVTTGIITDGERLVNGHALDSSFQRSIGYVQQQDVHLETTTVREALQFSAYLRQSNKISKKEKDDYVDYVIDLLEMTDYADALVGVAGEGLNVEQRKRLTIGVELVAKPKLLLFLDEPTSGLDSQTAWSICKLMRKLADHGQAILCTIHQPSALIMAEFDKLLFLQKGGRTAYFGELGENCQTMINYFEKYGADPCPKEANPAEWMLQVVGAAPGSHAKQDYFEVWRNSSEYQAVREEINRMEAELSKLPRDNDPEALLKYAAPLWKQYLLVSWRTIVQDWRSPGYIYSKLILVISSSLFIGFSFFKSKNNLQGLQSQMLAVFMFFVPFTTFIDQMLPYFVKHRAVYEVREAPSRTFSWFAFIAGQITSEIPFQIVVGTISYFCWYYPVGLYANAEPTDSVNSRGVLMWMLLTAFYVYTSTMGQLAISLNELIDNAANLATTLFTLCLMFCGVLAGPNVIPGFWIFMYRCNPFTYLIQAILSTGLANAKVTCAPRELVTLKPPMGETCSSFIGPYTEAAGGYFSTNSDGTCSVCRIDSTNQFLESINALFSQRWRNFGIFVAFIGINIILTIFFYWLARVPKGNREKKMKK

[3] = Luminescence Cell-Based Dose Confirmation HTS to Identify Inhibitors of Polyadenylation.; format: functional
[4] = microbe, parasite or virus in culture; format: functional; conditions: Mycobacterium tuberculosis
Streptococcus = assay: Group A Streptococcus viability loss, dose response, counter-screen for streptokinase expression inhibitor project, luminescence, BacTiterGlo (AID 1915); format: functional, organism-based;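 also: potency for reduction of bacterial viability or growth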
[5] = target: Multidrug resistance protein CDR1 (Candida albicans, UniProt P43071); assay: CaCDR1 efflux pump inhibitors in yeast, dose response, S. cerevisiae AD1-8u, singleplex, Cherry Pick1 hits (AID 588606); format: functional
Sequence of Multidrug resistance protein CDR1 (P43071 whole entry, looked up): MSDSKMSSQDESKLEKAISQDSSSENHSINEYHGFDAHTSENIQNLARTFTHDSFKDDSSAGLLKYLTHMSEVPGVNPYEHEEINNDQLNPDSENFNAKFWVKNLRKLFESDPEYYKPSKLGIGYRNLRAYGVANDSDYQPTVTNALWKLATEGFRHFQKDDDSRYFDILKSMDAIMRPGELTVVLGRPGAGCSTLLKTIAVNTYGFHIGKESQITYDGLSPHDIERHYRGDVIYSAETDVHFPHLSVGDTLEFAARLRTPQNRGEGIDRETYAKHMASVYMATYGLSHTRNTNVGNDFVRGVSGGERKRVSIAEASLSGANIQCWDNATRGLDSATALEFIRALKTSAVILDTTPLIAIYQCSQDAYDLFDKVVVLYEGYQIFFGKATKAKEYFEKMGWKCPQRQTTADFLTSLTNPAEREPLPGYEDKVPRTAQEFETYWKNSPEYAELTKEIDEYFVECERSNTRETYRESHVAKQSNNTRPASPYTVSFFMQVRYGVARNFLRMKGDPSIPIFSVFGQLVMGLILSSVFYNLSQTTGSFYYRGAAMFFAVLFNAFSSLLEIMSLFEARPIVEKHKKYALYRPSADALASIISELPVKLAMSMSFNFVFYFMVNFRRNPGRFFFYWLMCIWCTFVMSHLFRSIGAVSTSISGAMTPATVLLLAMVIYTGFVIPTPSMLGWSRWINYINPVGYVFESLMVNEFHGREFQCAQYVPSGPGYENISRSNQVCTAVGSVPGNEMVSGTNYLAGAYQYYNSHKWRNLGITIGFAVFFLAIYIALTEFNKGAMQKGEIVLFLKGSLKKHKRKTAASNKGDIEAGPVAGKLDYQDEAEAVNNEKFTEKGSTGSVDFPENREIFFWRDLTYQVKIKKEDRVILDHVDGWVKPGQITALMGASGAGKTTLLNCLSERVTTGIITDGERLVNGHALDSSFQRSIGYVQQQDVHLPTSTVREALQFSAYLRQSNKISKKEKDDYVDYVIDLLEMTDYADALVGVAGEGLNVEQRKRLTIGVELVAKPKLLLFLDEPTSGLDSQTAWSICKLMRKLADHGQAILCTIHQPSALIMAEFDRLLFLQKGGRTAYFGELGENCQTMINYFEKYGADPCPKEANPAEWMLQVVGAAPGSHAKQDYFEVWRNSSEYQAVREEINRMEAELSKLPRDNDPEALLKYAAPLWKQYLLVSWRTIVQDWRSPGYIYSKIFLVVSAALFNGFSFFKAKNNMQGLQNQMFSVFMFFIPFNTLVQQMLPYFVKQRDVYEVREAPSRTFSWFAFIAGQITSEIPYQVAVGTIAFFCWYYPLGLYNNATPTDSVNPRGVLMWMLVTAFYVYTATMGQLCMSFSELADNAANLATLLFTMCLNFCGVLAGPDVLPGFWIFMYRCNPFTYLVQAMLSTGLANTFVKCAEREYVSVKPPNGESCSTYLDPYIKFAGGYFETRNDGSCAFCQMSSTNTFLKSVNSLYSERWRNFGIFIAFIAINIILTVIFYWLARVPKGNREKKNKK

Streptokinase A = target: T1, Streptokinase A (Streptococcus pyogenes serotype M1, UniProt P10520); assay: S. pyogenes streptokinase expression inhibitors, potency, dose response, plasminogen activation absorbance, OD405 (AID 1914); format: functional, Streptococcus pyogenes M1 GAS;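 also: secreted streptokinase activity via plasminogen activation per viability signal from cell pellet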
T1 sequence (P10520 whole entry): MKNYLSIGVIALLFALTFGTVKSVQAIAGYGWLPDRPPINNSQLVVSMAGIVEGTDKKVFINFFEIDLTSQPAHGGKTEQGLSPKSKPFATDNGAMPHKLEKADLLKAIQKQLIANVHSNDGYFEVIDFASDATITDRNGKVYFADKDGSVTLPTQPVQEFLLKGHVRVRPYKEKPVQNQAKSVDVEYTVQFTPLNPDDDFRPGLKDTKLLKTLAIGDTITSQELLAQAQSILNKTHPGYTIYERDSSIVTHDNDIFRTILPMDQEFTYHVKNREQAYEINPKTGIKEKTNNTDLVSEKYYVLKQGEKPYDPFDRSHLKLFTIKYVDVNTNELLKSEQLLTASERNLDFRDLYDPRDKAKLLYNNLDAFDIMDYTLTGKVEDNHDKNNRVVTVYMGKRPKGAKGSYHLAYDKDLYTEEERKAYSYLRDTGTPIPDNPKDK

[6] = target: T2, High affinity choline transporter 1 (Homo sapiens, UniProt Q9GZV3); assay: CHT inhibitors, dose response, cell-based, 5-point CRC, membrane potential dye (AID 504840); format: functional
T2 sequence (Q9GZV3 whole entry): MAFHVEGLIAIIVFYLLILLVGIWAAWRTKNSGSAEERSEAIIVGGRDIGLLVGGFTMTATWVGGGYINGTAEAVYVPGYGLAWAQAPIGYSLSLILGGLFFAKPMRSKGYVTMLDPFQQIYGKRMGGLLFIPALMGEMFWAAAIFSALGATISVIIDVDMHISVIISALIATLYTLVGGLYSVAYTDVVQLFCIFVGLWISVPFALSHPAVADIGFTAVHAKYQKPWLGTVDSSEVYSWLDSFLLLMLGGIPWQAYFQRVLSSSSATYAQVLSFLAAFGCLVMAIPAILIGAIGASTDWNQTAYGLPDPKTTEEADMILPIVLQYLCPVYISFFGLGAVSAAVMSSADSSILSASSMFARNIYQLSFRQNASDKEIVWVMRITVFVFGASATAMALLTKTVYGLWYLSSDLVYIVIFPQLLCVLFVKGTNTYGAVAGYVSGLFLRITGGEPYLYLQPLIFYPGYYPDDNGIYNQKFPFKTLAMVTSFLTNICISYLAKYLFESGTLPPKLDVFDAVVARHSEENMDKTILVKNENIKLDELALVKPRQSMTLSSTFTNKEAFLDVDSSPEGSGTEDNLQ

[7] = target: T2, High affinity choline transporter 1; assay: CHT inhibitors, dose response, cell-based, 10-point CRC, membrane potential dye (AID 588401); format: functional;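 also: membrane potential dye fluorescence of choline-evoked depolarization via CHT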

Row | SMILES | EC50 [1] | EC50 [2] | EC50 [3] | CC50 [4] | EC50 (Streptococcus) | EC50 [5] | EC50 (Streptokinase A) | IC50 [6] | IC50 [7]
1 | CCc1ccc(NC2=NC(=O)/C(=C/c3cc(OC)c(O)c(OC)c3)S2)cc1 | 2.67 µM (active) | 19.2 µM (active) | 10.5 µM (active) | > 40 µM (active) | 28.2 µM (active) | 6.05 µM (active) | > 150 µM (not active) |  | 
2 | Cc1nn2c(N3CCN(CCO)CC3)c3c(nc2c1-c1ccccc1)CCCC3 |  |  |  |  |  |  |  | 6.95 µM (active) | 4.74 µM (active)
